# Results published in PubChem BioAssay AID1996.
# Settings: buffer; pH 7.4; 200.0 µM
row,solubility kinetic,SMILES
1,> 31.7 µg/mL,Nc1ccc(C(=O)[O-])c(O)c1.O.[Na+]
2,1.5 µg/mL,O=C(Nc1nccs1)c1ccc(-c2ccc(F)cc2)o1
3,> 41.7 µg/mL,COc1ccc(C)cc1S(=O)(=O)Nc1ccncc1
4,> 39.4 µg/mL,Cc1ccc(CC(=O)NCCN2CCOCC2)cc1
5,> 38.7 µg/mL,CCOc1ccc2nc(S(N)(=O)=O)sc2c1
6,> 55.1 µg/mL,CCN1CCN(C(=S)NC(=O)c2cc(OC)c(OC)c(OC)c2)CC1
7,> 36.5 µg/mL,CCN(CC)C(=N)/C(C#N)=N/Nc1ccccc1
8,2.7 µg/mL,O=C(COc1cc(Cl)ccc1Cl)Nc1ccc2[nH]c(=O)[nH]c2c1
9,> 57.4 µg/mL,Cc1ccc(C(=O)N/C(=C\c2ccco2)C(=O)N2CC(C)OC(C)C2)cc1C (centres undefined)
10,0.3 µg/mL,Cc1ccc(NC(=O)Nc2cnc3ccccc3c2)cc1
11,> 47.6 µg/mL,O=C(c1cc(C(=O)N2CCCC2)cc([N+](=O)[O-])c1)N1CCCC1
12,> 38.4 µg/mL,CCc1c(-c2ccccc2)[n+](=O)c2c(n1[O-])CCC2
13,0.3 µg/mL,O=C(Nc1cccnc1)c1cc(-c2ccc(Cl)cc2)on1
14,38.4 µg/mL,Nc1nc(SCc2ccccc2)c2[nH]cnc2n1
15,1.9 µg/mL,N#CNC(=Nc1ccc(Cl)cc1)Oc1ccccc1
16,> 43.4 µg/mL,Cc1ccc(NC(=O)NCCCN2CCCC2=O)cc1C
17,26.2 µg/mL,O=C(NCCNC1CCCCC1)c1ccco1
18,> 57.7 µg/mL,O=C(COC(=O)CNC(=O)C1CCCCC1)Nc1ccccc1OC(F)F
19,19.3 µg/mL,CCc1noc(C)c1C(=O)Nc1nc(-c2cccs2)cs1
20,> 38.2 µg/mL,Cc1ccc(NC(=O)CN2CCCC2)cc1.Cl
21,5 µg/mL,COc1cc(NC(=O)c2ccc(S(=O)(=O)N(C)c3ccccc3)cc2)cc(OC)c1
22,> 45.2 µg/mL,CN(Cc1ccccc1)C(=O)COc1cccnc1[N+](=O)[O-]
23,< 0.8 µg/mL,CCOc1ccc(-n2c(C)c(C(C)=O)c3cc(OC(C)=O)ccc32)cc1

row,solubility kinetic,SMILES
1,< 0.6 µg/mL,Cc1ccc(N=Cc2c(O)c3ccccc3oc2=O)cc1F
2,0.8 µg/mL,CCC(=O)c1cn(CC(=O)Nc2ccccc2Cl)c2ccccc12
3,> 50.8 µg/mL,O=C(NC1CCCc2ccccc21)N[C@@H](Cc1ccccc1)C(=O)O (some centres undefined)
4,2.8 µg/mL,Cc1cnc(C(=O)Oc2ccc(-c3ccccc3)cc2)cn1
5,> 38.1 µg/mL,Clc1ccc(CNc2cnccn2)cc1Cl
6,3.4 µg/mL,COC(=O)c1ccc(CSc2cc(C)c3ccccc3n2)o1
7,43.2 µg/mL,O=C(NC(=S)NC1CCSC1=O)c1cccc([N+](=O)[O-])c1 (centres undefined)
8,> 43.3 µg/mL,Nc1cc2c(cc1Cl)N(Cc1ccccc1)C(=O)CO2
9,> 36.3 µg/mL,Cc1[nH]c2ccc(C(=O)N3CCCC3)cc2c1C
10,> 48.5 µg/mL,Cc1cccc(C(=O)NCC(=O)N2CC(=O)Nc3ccccc32)c1
11,51.5 µg/mL,COCCn1c(SCC(=O)N2CCOCC2)nc2ccccc2c1=O
12,35.8 µg/mL,Cn1c(=O)c2c([nH]c(=S)n2CCCc2ccccc2)n(C)c1=O
13,> 55.1 µg/mL,COc1ccc(C2NC(=O)C(C#N)=C(S)N2c2ccccc2)cc1OC (centres undefined)
14,44.5 µg/mL,CCOC(=O)C1CCCN(c2c(NCCC(C)C)c(=O)c2=O)C1 (centres undefined)
15,25.5 µg/mL,CC(C)(C)c1ccc(OCCCn2ccnc2)cc1
16,> 46.8 µg/mL,COc1cc2c(cc1OC)C(c1cccc([N+](=O)[O-])c1)=NCC2
17,0.5 µg/mL,CC1=C(C(=O)OCC2CCCCC2)C(c2ccc(F)cc2)NC(=O)N1 (centres undefined)
18,> 50.6 µg/mL,Cn1cc(C(=O)NCC(=O)Nc2ccccc2Br)cn1
19,> 56.5 µg/mL,Cc1ccc(S(=O)(=O)N2CCC[C@H]2C(=O)Nc2ccc(F)cc2C)cc1
20,> 37.4 µg/mL,OC(COc1ccccc1)CN1CCCCCC1 (centres undefined)
21,11.3 µg/mL,Fc1ccc2nc(C(F)(F)F)cc(N3CCOCC3)c2c1
22,49.4 µg/mL,O=S(=O)(c1ccc(Cl)cc1)N1CCN(Cc2cccnc2)CC1
23,10.6 µg/mL,COc1ccccc1-n1cc(-c2ccccc2)c2c(=S)nc[nH]c21

row,solubility kinetic,SMILES
1,< 0.7 µg/mL,CN(Cc1ccccc1)C(=O)COc1ccc(C(C)(C)C)cc1
2,> 42 µg/mL,O=S(=O)(NCCc1ccncc1)c1ccc(F)cc1
3,11.7 µg/mL,CCN(C(=O)Cn1c(=O)oc2ccccc21)c1ccc(C)c(C)c1
4,5.7 µg/mL,O=C(Nc1cccc(Cl)c1N1CCOCC1)c1ccco1
5,> 46.7 µg/mL,Cc1ccc(C)c(NC(=O)C(CC(=O)O)Cc2ccccc2)c1 (centres undefined)
6,12.1 µg/mL,CN(C)S(=O)(=O)c1cccc(COc2cccnc2[N+](=O)[O-])c1
7,3.8 µg/mL,Nc1ncc([N+](=O)[O-])cc1S(=O)(=O)c1ccccc1
8,< 0.3 µg/mL,Cc1cc(C(=O)Nc2ccc3c(c2)OCCO3)ccc1[N+](=O)[O-]
9,> 49.1 µg/mL,COc1cccc(/C=C(\C)C(=O)c2c(C)cc(C)[nH]c2=O)c1OC
10,40.2 µg/mL,CCc1ccccc1NS(=O)(=O)Cc1ccccc1
11,1.7 µg/mL,CC(C)(C)N(Cc1ccccc1)C(=O)c1cccs1
12,> 51.5 µg/mL,CCCN(CC(=O)Nc1ccccc1OC)C(=O)c1ccc(=O)[nH]c1
13,> 33.2 µg/mL,C=CCNc1cc(C)oc(=O)c1C(=O)CC
14,8.1 µg/mL,O=C1NC2(CCCCC2)N(C(=O)c2ccccc2)C2=C1CCCC2
15,50.5 µg/mL,O=C(NC1(C(F)(F)F)N=C2SCCN2C1=O)c1ccccc1F (centres undefined)
16,> 51.5 µg/mL,O=C(CN1C(=O)NC(CCc2ccccc2)C1=O)N1CCCCCC1 (centres undefined)
17,43.8 µg/mL,Cc1ccc(N2CCN(C(=O)c3cccs3)CC2)cc1C
18,3.2 µg/mL,CC1CCN(S(=O)(=O)c2ccc3[nH]c(=O)[nH]c3c2)CC1
19,33.1 µg/mL,CCN(CC(=O)Nc1ccc(OC(F)F)cc1)C1CCCCC1
20,6.7 µg/mL,COc1ccc(NC(=O)COC(=O)c2ccc3ccccc3n2)cc1OC
21,3.8 µg/mL,O=c1c2ccccc2ncn1-c1cccc([N+](=O)[O-])c1
22,15.3 µg/mL,CC1CCCC(C)N1C(=O)COC(=O)c1ccc2ccccc2n1 (centres undefined)
23,44 µg/mL,Cc1ccc(-c2noc(CCCC(=O)NC3CCCC3)n2)cc1

row,solubility kinetic,SMILES
1,1.6 µg/mL,O=C(Nc1ccon1)Nc1ccc(Cl)cc1Cl
2,> 47.2 µg/mL,COCCC(=O)N1CCc2c([nH]c3ccccc23)C1C(C)(C)C (centres undefined)
3,> 45.1 µg/mL,O=C(O)CSc1nc(-c2ccccc2)nc2c1CCCC2
4,44 µg/mL,O=C(Cn1c(=O)oc2ccccc21)NCCc1ccccc1
5,10.8 µg/mL,COc1ccccc1CNC(=O)c1cc(=O)c2ccccc2o1
6,24.7 µg/mL,Cn1c(CNC(=O)c2ccc(F)cc2)cc2ccccc21
7,< 0.3 µg/mL,COc1cccc(-c2nc(-c3cccs3)no2)c1
8,> 49.1 µg/mL,Cc1ccccc1NC(=O)CN1CCN(C(=O)c2ccco2)CC1
9,35.6 µg/mL,Cc1cc(C)c(NC(=O)COC(=O)c2ccncc2)c(C)c1
10,> 40.2 µg/mL,O=C(NCCNC(=O)c1ccccc1)c1ccccc1
11,11.8 µg/mL,CSc1nsc(SCC(=O)NCc2ccc(C)cc2)n1
12,43.3 µg/mL,Cc1cc(C(F)(F)F)nc(SCCN2CCOCC2)c1C#N
13,> 43.3 µg/mL,Cc1ccc2c(c1)N(CC(=O)N1CCCC1)C(=O)C(C)O2 (centres undefined)
14,10.9 µg/mL,Br.C=CCn1c(C)csc1=Nc1ccccc1C
15,41.3 µg/mL,Cc1ccc(C2(c3noc(CN4CCOCC4)n3)CCCC2)cc1
16,> 32.3 µg/mL,O=C(N/N=C/c1cccnc1)c1ccco1
17,20.6 µg/mL,CCN(C(=O)C(C)Cl)c1ccccc1 (centres undefined)
18,29.3 µg/mL,C=CCSc1ncccc1C(=O)NCCc1ccccc1
19,49.1 µg/mL,O=C(CN1CCN(c2ccccc2F)CC1)NCc1ccc(Cl)cc1
20,49 µg/mL,O=C(NCCCn1ccnc1)c1cc(C(=O)C2CCCCC2)c[nH]1
21,> 43.6 µg/mL,Cc1cnc(C(=O)OCC(=O)c2ccc(Cl)cc2)cn1
22,> 43.2 µg/mL,O=C(Cn1cc(C(F)(F)F)ccc1=O)NC1CCCC1
23,0.3 µg/mL,CCCCCc1c(C)[nH]c2nc3ccccc3n2c1=O

row,solubility kinetic,SMILES
1,41.4 µg/mL,Cc1ccc(C(=O)Nc2cccc(NC(=O)CN3CCCCC3)c2)cc1
2,> 47.5 µg/mL,CCCS(=O)(=O)N1CCN=C1SCc1ccc(F)cc1
3,3.4 µg/mL,COc1ccc(NC(=O)CSc2ccccc2)c([N+](=O)[O-])c1
4,2.1 µg/mL,Cc1ccccc1NC(=O)COc1ccccc1C
5,> 48.7 µg/mL,COc1ccc(C2C(C(C)=O)=C(O)C(=O)N2c2ccccn2)cc1 (centres undefined)
6,2.3 µg/mL,CCCn1c(=N)c(C#N)cc2c(=O)n3cccc(C)c3nc21
7,< 0.3 µg/mL,COC(=O)c1cccc(NC(=O)Nc2ccc(Cl)cc2)c1
8,> 52.1 µg/mL,Cc1[nH]c2ccccc2c1-c1csc(NC(=O)CSCCO)n1
9,> 55.4 µg/mL,CC(OC(=O)Cn1ccccc1=O)C(=O)Nc1cc(Cl)cc(Cl)c1 (centres undefined)
10,> 50.6 µg/mL,O=S(=O)(Nc1ccncc1Cl)c1cc(Cl)ccc1Cl
11,6.8 µg/mL,O=C(/C=C/c1ccc([N+](=O)[O-])cc1)OCc1cnc(-c2ccccc2)o1
12,> 54.4 µg/mL,CC(=O)NC1C(=O)N=C(SCC(=O)Nc2c(C)cccc2C)NC1=O (centres undefined)
13,> 59.5 µg/mL,CCOc1ccc(C(=O)OC(C)C(=O)N2CCN(Cc3ccccc3)CC2)cc1 (centres undefined)
14,> 55 µg/mL,CNC(=O)/C(C#N)=C/c1c(N2CCN(C)CC2)nc2c(C)cccn2c1=O
15,> 43.3 µg/mL,CC1=C(C(=O)OC(C)C)C(c2ccccc2)NC(=O)N1C (centres undefined)
16,6.7 µg/mL,CCOC(=O)c1[nH]cnc1C(=O)Nc1ccc(F)cc1
17,2.3 µg/mL,NC(=O)c1ccc(N2CCN(S(=O)(=O)c3cccs3)CC2)c([N+](=O)[O-])c1
18,3.8 µg/mL,COc1cc2[nH]c(=S)nc(NCc3ccc(C)cc3)c2cc1OC
19,45.9 µg/mL,O=S(=O)(Nc1ccc2ccccc2n1)c1ccc2c(c1)CCO2
20,> 44.7 µg/mL,COc1ccc(C(=O)CCN2CCC(C)CC2)cc1.Cl
21,> 31.8 µg/mL,CC(=O)Nc1nc(C)c(C(C)(C)C)s1

row,SMILES,solubility kinetic
1,N#CC1(CCCN2CCCCC2)c2ccccc2CCc2ccccc21.O=C(O)C(=O)O,> 65.2 µg/mL
2,Cc1ccsc1C(=O)C1CCCN(Cc2cnc(N)nc2)C1 (centres undefined),37.8 µg/mL
3,Cc1ncc([N+](=O)[O-])n1CCOc1nonc1N,> 38.1 µg/mL
4,O=C(O)C(=O)O.OC1(c2ccccc2)CCNC2CCCCC21 (centres undefined),> 48.2 µg/mL
5,CCC(C)NC(=O)c1c(N)n(CCCOC)c2nc3ccccc3nc12 (centres undefined),6.4 µg/mL
6,CCN(CC)C(=O)c1ccc(NC(=O)c2cccc(C(F)(F)F)c2)cc1,2.8 µg/mL
